Several values for one entry are separate records, joined by “and”; a condition that tells them apart may be missing. Equal entries are not always repeated. Inconclusive results and toxic doses are left out. Peptide text beside a SMILES is read from it. * marks the point of attachment. Boc = CC(C)(C)OC(=O)*; NHNH2 = NN*
Test system: P388 leukemia ip, CD2F1 mice, survival T/C
Assay: NCI In Vivo Anticancer Drug Screen. Data for tumor model P388 Leukemia (intraperitoneal) in CD2F1 (CDF1) mice
Settings: endpoint: median survival time, higher = longer survival
In short: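 Mice carrying the transplanted tumor received test compound or vehicle. Survival was recorded in each group, and the value is the treated-group measurement divided by that of the vehicle-treated control group.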

[1] = dose: 50.0 mg/kg/injection, schedule: Q01DX005 (ip), vehicle: Klucel (hydroxypropylcellulose) (HPC)
[2] = dose: 100.0 mg/kg/injection, schedule: Q01DX005 (ip), vehicle: Klucel (hydroxypropylcellulose) (HPC)
[3] = dose: 200.0 mg/kg/injection, schedule: Q01DX005 (ip), vehicle: Klucel (hydroxypropylcellulose) (HPC)
[4] = dose: 60.0 mg/kg/injection, schedule: Q01DX005 (ip), vehicle: saline with Tween-80
[5] = dose: 120.0 mg/kg/injection, schedule: Q01DX005 (ip), vehicle: saline with Tween-80
[6] = dose: 240.0 mg/kg/injection, schedule: Q01DX005 (ip), vehicle: saline with Tween-80
[7] = dose: 6.25 mg/kg/injection, schedule: Q01DX005 (ip), vehicle: saline with Tween-80
[8] = dose: 12.5 mg/kg/injection, schedule: Q01DX005 (ip), vehicle: saline with Tween-80
[9] = dose: 25.0 mg/kg/injection, schedule: Q01DX005 (ip), vehicle: saline with Tween-80
[10] = dose: 50.0 mg/kg/injection, schedule: Q01DX005 (ip), vehicle: saline with Tween-80
[11] = dose: 100.0 mg/kg/injection, schedule: Q01DX005 (ip), vehicle: saline with Tween-80
[12] = dose: 200.0 mg/kg/injection, schedule: Q01DX005 (ip), vehicle: saline with Tween-80
[13] = dose: 60.0 mg/kg/injection, schedule: Q01DX005 (ip), vehicle: Klucel (hydroxypropylcellulose) (HPC)
[14] = dose: 100.0 mg/kg/injection, schedule: Q01DX009 (ip), vehicle: saline with Tween-80
[15] = dose: 200.0 mg/kg/injection, schedule: Q01DX009 (ip), vehicle: saline with Tween-80
[16] = dose: 50.0 mg/kg/injection, schedule: Q01DX005 (ip), vehicle: saline
[17] = dose: 100.0 mg/kg/injection, schedule: Q01DX001 (ip), vehicle: saline with Tween-80
[18] = dose: 200.0 mg/kg/injection, schedule: Q01DX001 (ip), vehicle: saline with Tween-80
[19] = dose: 400.0 mg/kg/injection, schedule: Q01DX001 (ip), vehicle: saline with Tween-80

C/C=C/c1cc2n(c1)C(=O)c1cc(OC3OC(C)C(NC)C(C)(O)C3O)c(C)c(O)c1NC2O (centres undefined)
T/C (dose: 0.02 mg/kg/injection, schedule: Q04DX003 (ip), vehicle: saline): 94 % of control
T/C (dose: 0.04 mg/kg/injection, schedule: Q04DX003 (ip), vehicle: saline): 89 % of control
T/C (dose: 0.3 micrograms/kg/injection, schedule: Q03DX003 (ip), vehicle: DMSO): 110 % of control
T/C (dose: 1.0 micrograms/kg/injection, schedule: Q01DX001 (ip), vehicle: DMSO): 120 % of control
T/C (dose: 1.0 micrograms/kg/injection, schedule: Q01DX009 (ip), vehicle: saline): 100 % of control
T/C (dose: 4.0 micrograms/kg/injection, schedule: Q01DX009 (ip), vehicle: saline): 117 % of control
T/C (dose: 4.0 micrograms/kg/injection, schedule: Q04DX003 (ip), vehicle: DMSO): 120 % of control
T/C (dose: 16.0 micrograms/kg/injection, schedule: Q01DX001 (ip), vehicle: DMSO): 173 % of control
T/C (dose: 16.0 micrograms/kg/injection, schedule: Q03DX003 (ip), vehicle: DMSO): 180 % of control
T/C (dose: 16.0 micrograms/kg/injection, schedule: Q04DX003 (ip), vehicle: DMSO): 123 % of control
T/C (dose: 32.0 micrograms/kg/injection, schedule: Q01DX001 (ip), vehicle: DMSO): 95 % of control

CC(C)CC#N
T/C (dose: 25.0 mg/kg/injection, schedule: Q01DX009 (ip), vehicle: saline): 90 % of control
T/C (dose: 50.0 mg/kg/injection, schedule: Q01DX009 (ip), vehicle: saline): 100 % of control
T/C (dose: 100.0 mg/kg/injection, schedule: Q01DX009 (ip), vehicle: saline): 100 % of control

CC(C)(C)OC(=O)NC(Cc1ccccc1)C(=O)NC(CO)C(=O)NN (stereo not drawn) (Boc-Phe-Ser-NHNH2; configuration not given here)
T/C [1]: 97 % of control
T/C [2]: 95 % of control
T/C [3]: 105 % of control

O=C(N/N=C/c1cccc(C(F)(F)F)c1)c1ccncc1
T/C [4]: 103 % of control
T/C [5]: 97 % of control
T/C [6]: 90 % of control

CCN=C1C=CC(=C(c2ccc(N(CC)CC)cc2)c2ccc(N(CC)CC)cc2)c2ccccc21
T/C [7]: 110 % of control and 113 % of control
T/C [8]: 118 % of control (2×) and 119 % of control
T/C [9]: 115 % of control

C#CC(OS(=O)(=O)C(F)(F)F)=C(C)C
T/C [10]: 99 % of control
T/C [11]: 100 % of control
T/C [12]: 100 % of control

COc1ccc2c(c1)no[n+]2[O-]
T/C (dose: 100.0 mg/kg/injection, schedule: Q04DX002 (ip), vehicle: saline): 93 % of control
T/C (dose: 200.0 mg/kg/injection, schedule: Q04DX002 (ip), vehicle: saline): 92 % of control
T/C (dose: 400.0 mg/kg/injection, schedule: Q04DX002 (ip), vehicle: saline): 99 % of control

C=C(C)C1CC=C(C)/C(=N/NC(=O)c2cccnc2)C1 (centres undefined)
T/C [1]: 116 % of control
T/C [2]: 101 % of control
T/C [3]: 109 % of control

Cc1ccc(S(=O)(=O)N/N=C/c2c(-c3ccc(-c4ccccc4)cc3)nc3sccn23)cc1
T/C (dose: 100.0 mg/kg/injection, schedule: Q01DX001 (ip), vehicle: Klucel (hydroxypropylcellulose) (HPC)): 94 % of control
T/C (dose: 200.0 mg/kg/injection, schedule: Q01DX001 (ip), vehicle: Klucel (hydroxypropylcellulose) (HPC)): 86 % of control
T/C (dose: 400.0 mg/kg/injection, schedule: Q01DX001 (ip), vehicle: Klucel (hydroxypropylcellulose) (HPC)): 88 % of control

O=C1CC2(CCCC2)CC(=O)N1c1ccc(-c2ccc(N3C(=O)CC4(CCCC4)CC3=O)cc2)cc1
T/C (dose: 50.0 mg/kg/injection, schedule: Q01DX009 (ip), vehicle: Klucel (hydroxypropylcellulose) (HPC)): 100 % of control
T/C (dose: 100.0 mg/kg/injection, schedule: Q01DX009 (ip), vehicle: Klucel (hydroxypropylcellulose) (HPC)): 94 % of control

CCOC(=O)c1ccc(NC(=O)Nc2ccc(OC)cc2Cl)cc1
T/C [13]: 91 % of control
T/C (dose: 120.0 mg/kg/injection, schedule: Q01DX005 (ip), vehicle: Klucel (hydroxypropylcellulose) (HPC)): 93 % of control
T/C (dose: 240.0 mg/kg/injection, schedule: Q01DX005 (ip), vehicle: Klucel (hydroxypropylcellulose) (HPC)): 96 % of control

CNc1nc(N)nc2c1nc(Cl)n2C1OC(CO)C(O)C1O (centres undefined)
T/C [10]: 102 % of control
T/C [11]: 101 % of control
T/C [12]: 95 % of control

CC(N)C(=O)NC(C)P(=O)(O)O (centres undefined)
T/C (dose: 50.0 mg/kg/injection, schedule: Q01DX009 (ip), vehicle: saline with Tween-80): 102 % of control
T/C [14]: 101 % of control
T/C [15]: 101 % of control

O=C(c1ccc(Cl)cc1)c1cnc2nc(-c3ccccc3)c(-c3ccccc3)nn12
T/C [7]: 97 % of control
T/C [8]: 98 % of control
T/C [9]: 97 % of control
T/C [10]: 103 % of control
T/C [11]: 113 % of control
T/C [12]: 115 % of control

CN1C(=O)NC2(CCCCC2)C1=O
T/C [1]: 105 % of control
T/C [2]: 100 % of control
T/C [3]: 100 % of control

CC12CC(C(O)(C(F)(F)F)C(F)(F)F)C(=O)C=C1CCC1C2CCC2(C)C(C(=O)CC(O)(C(F)(F)F)C(F)(F)F)CCC12 (centres undefined)
T/C (dose: 75.0 mg/kg/injection, schedule: Q01DX001 (sc), vehicle: steriod suspending solution): 104 % of control
T/C (dose: 150.0 mg/kg/injection, schedule: Q01DX001 (sc), vehicle: steriod suspending solution): 122 % of control
T/C (dose: 300.0 mg/kg/injection, schedule: Q01DX001 (sc), vehicle: steriod suspending solution): 100 % of control

CCC/C(=N\NC(=S)N(C)C)c1ccccn1
T/C [8]: 103 % of control
T/C [9]: 107 % of control
T/C [10]: 115 % of control and 117 % of control

N#CC1CCN(Cc2ccccc2)C(C#N)C1 (centres undefined)
T/C (dose: 15.0 mg/kg/injection, schedule: Q01DX005 (ip), vehicle: Klucel (hydroxypropylcellulose) (HPC)): 105 % of control
T/C (dose: 30.0 mg/kg/injection, schedule: Q01DX005 (ip), vehicle: Klucel (hydroxypropylcellulose) (HPC)): 106 % of control
T/C [13]: 102 % of control and 106 % of control

N/C(=N/O)NO
T/C [16]: 112 % of control and 113 % of control
T/C (dose: 100.0 mg/kg/injection, schedule: Q01DX005 (ip), vehicle: saline): 122 % of control

CCCCN(CCCC)CCCNC(c1ccc(N(C)C)cc1)c1ccc(N(C)C)cc1
T/C (dose: 25.0 mg/kg/injection, schedule: Q01DX005 (ip), vehicle: Klucel (hydroxypropylcellulose) (HPC)): 98 % of control
T/C [1]: 104 % of control
T/C [2]: 98 % of control
T/C [3]: 102 % of control

O=S(=O)(Nc1nccs1)c1ccc(Nc2c3ccc(Cl)cc3nc3ncccc23)cc1
T/C [10]: 105 % of control
T/C [11]: 102 % of control
T/C [12]: 98 % of control

NC(=O)NC(=O)C(Cc1ccccc1)c1ccccc1 (centres undefined)
T/C [4]: 99 % of control
T/C [5]: 95 % of control
T/C [6]: 86 % of control

COc1cc(-c2cc(O)c(-c3ccc4ccccc4n3)c(=O)[nH]2)cc(OC)c1OC
T/C (dose: 0.93 mg/kg/injection, schedule: Q01DX005 (ip), vehicle: saline with Tween-80): 102 % of control
T/C (dose: 1.88 mg/kg/injection, schedule: Q01DX005 (ip), vehicle: saline with Tween-80): 98 % of control
T/C (dose: 3.75 mg/kg/injection, schedule: Q01DX005 (ip), vehicle: saline with Tween-80): 96 % of control
T/C [5]: 87 % of control
T/C [6]: 90 % of control

O=C1C=CC(Nc2ccc(Cl)c(Cl)c2)C1Nc1ccc(Cl)c(Cl)c1 (centres undefined)
T/C [4]: 100 % of control
T/C [5]: 93 % of control
T/C [6]: 93 % of control

CCCCCc1ccccc1
T/C [14]: 106 % of control
T/C [15]: 109 % of control

CN(C)c1ccc(/C=C/C(=O)c2ccc(Nc3ccnc4cc(Cl)ccc34)cc2)cc1
T/C (dose: 400.0 mg/kg/injection, schedule: Q04DX002 (ip), vehicle: saline with Tween-80): 93 % of control

CCN(CC)c1cc2oc3cc(N)cc(=N)c-3nc2cc1C
T/C (dose: 12.5 mg/kg/injection, schedule: Q01DX005 (ip), vehicle: saline): 102 % of control
T/C (dose: 25.0 mg/kg/injection, schedule: Q01DX005 (ip), vehicle: saline): 98 % of control
T/C [10]: 112 % of control
T/C [16]: 96 % of control
T/C [11]: 107 % of control
T/C [12]: 102 % of control

OCCCCc1ccccc1
T/C [17]: 104 % of control
T/C [18]: 100 % of control
T/C [19]: 100 % of control

CC1CN(c2ccc(Cl)cc2)CCOC(=O)O1 (centres undefined)
T/C [17]: 92 % of control
T/C [18]: 95 % of control
T/C [19]: 92 % of control

From PubChem BioAssay AID330 (DTP/NCI, 2004)
